Blank lines part the entries; values can stand above or below the compound they belong to. Activity calls are given as the source filed them. The rule behind the calls is not given here. Where a SMILES comes first, the peptide text is derived from it.
Experiments:
[1] = Drug uptake in human HeLa cells measured after 4 hrs by tryphan blue staining based flow cytometry; type: ADME, cell-based
[2] = target: T1, CREB-binding protein/Histone acetyltransferase p300 (Homo sapiens, UniProt Q09472+Q92793); experiment: Binding affinity to His-tagged human CH1 domain of p300 (323 to 423 residues)expressed in Escherichia coli Rosetta (DE3)/CBP (unknown origin) by fluorescence polarization assay
[3] = target: T1, CREB-binding protein/Histone acetyltransferase p300; experiment: Binding affinity to p300/CBP in hypoxia-induced human HeLa cells assessed as p300/CBP pull down at 25 uM measured after 12 hrs pulldown-based Western blot analysis
[4] = Stability of the compound in mouse serum by LC/MS analysis; type: ADME, cell-free
HeLa [5] = experiment: Cytotoxicity against human HeLa cells assessed as cell membrane disruption measured after 4 hrs under hypoxia condition by LDH assay; type: functional, cell-based
[6] = target: T2, HIF1A/p300/CREB-binding protein (Homo sapiens) (UniProt Q09472+Q16665+Q92793); experiment: Inhibition of hypoxia-induced HIF1alpha/P300-CBP interaction mediated gene transcriptional activity in human HeLa cells co-transfected with luciferase reporter plasmid containing HRE and pRL-CMV vector at 25 uM incubated for 24 hrs under hypoxic condition by HRE-dependent dual luciferase reporter gene assay; type: cell-based
HeLa [7] = experiment: Downregulation of GLUT1 mRNA expression in human HeLa cells at 25 uM measured after 24 hrs under hypoxia condition by RT-PCR analysis; type: functional, cell-based
HeLa [8] = experiment: Downregulation of HK1 mRNA expression in human HeLa cells at 25 uM measured after 24 hrs under hypoxia condition by RT-PCR analysis; type: functional, cell-based
HeLa [9] = experiment: Downregulation of VEGF mRNA expression in human HeLa cells at 25 uM measured after 24 hrs under hypoxia condition by RT-PCR analysis; type: functional, cell-based
HeLa [10] = experiment: Cytotoxicity against human HeLa cells assessed as reduction in cell viability measured after 24 hrs under hypoxia condition by MTT assay; type: functional, cell-based
HeLa [11] = experiment: Cytotoxicity against human HeLa cells assessed as cell growth inhibition measured after 24 hrs by MTT assay; type: functional, cell-based
MDA-MB-231 = experiment: Cytotoxicity against human MDA-MB-231 cells assessed as cell growth inhibition measured after 24 hrs by MTT assay; type: functional, cell-based
A549 = experiment: Cytotoxicity against human A549 cells assessed as cell growth inhibition measured after 24 hrs by MTT assay; type: functional, cell-based
[12] = target: T2, HIF1A/p300/CREB-binding protein (Homo sapiens); experiment: Inhibition of hypoxia-induced HIF1alpha/P300-CBP interaction in human HeLa cells at 10 uM measured after 24 hrs by co-immunoprecipiation assay; type: cell-based
[13] = target: T2, HIF1A/p300/CREB-binding protein (Homo sapiens); experiment: Inhibition of HA-tagged CTAD (786 to 826 residues) HIF1alpha/Flag-tagged P300 CH1 domain (323 to 423 residues)/CBP (unknown origin) interaction expressed in HEK293T cells measured after 24 hrs by co-iimunoprecipitation assay; type: cell-based
HeLa [14] = experiment: Downregulation of VEGF protein expression in human HeLa cells at 25 uM measured after 24 hrs under hypoxia condition by Western blot analysis; type: functional, cell-based
HeLa [15] = experiment: Downregulation of HK1 protein expression in human HeLa cells at 25 uM measured after 24 hrs under hypoxia condition by Western blot analysis; type: functional, cell-based
HeLa [16] = experiment: Downregulation of GLUT1 protein expression in human HeLa cells at 25 uM measured after 24 hrs under hypoxia condition by Western blot analysis; type: functional, cell-based

T1 sequence (Q09472 whole entry, looked up, the tested form may be a part): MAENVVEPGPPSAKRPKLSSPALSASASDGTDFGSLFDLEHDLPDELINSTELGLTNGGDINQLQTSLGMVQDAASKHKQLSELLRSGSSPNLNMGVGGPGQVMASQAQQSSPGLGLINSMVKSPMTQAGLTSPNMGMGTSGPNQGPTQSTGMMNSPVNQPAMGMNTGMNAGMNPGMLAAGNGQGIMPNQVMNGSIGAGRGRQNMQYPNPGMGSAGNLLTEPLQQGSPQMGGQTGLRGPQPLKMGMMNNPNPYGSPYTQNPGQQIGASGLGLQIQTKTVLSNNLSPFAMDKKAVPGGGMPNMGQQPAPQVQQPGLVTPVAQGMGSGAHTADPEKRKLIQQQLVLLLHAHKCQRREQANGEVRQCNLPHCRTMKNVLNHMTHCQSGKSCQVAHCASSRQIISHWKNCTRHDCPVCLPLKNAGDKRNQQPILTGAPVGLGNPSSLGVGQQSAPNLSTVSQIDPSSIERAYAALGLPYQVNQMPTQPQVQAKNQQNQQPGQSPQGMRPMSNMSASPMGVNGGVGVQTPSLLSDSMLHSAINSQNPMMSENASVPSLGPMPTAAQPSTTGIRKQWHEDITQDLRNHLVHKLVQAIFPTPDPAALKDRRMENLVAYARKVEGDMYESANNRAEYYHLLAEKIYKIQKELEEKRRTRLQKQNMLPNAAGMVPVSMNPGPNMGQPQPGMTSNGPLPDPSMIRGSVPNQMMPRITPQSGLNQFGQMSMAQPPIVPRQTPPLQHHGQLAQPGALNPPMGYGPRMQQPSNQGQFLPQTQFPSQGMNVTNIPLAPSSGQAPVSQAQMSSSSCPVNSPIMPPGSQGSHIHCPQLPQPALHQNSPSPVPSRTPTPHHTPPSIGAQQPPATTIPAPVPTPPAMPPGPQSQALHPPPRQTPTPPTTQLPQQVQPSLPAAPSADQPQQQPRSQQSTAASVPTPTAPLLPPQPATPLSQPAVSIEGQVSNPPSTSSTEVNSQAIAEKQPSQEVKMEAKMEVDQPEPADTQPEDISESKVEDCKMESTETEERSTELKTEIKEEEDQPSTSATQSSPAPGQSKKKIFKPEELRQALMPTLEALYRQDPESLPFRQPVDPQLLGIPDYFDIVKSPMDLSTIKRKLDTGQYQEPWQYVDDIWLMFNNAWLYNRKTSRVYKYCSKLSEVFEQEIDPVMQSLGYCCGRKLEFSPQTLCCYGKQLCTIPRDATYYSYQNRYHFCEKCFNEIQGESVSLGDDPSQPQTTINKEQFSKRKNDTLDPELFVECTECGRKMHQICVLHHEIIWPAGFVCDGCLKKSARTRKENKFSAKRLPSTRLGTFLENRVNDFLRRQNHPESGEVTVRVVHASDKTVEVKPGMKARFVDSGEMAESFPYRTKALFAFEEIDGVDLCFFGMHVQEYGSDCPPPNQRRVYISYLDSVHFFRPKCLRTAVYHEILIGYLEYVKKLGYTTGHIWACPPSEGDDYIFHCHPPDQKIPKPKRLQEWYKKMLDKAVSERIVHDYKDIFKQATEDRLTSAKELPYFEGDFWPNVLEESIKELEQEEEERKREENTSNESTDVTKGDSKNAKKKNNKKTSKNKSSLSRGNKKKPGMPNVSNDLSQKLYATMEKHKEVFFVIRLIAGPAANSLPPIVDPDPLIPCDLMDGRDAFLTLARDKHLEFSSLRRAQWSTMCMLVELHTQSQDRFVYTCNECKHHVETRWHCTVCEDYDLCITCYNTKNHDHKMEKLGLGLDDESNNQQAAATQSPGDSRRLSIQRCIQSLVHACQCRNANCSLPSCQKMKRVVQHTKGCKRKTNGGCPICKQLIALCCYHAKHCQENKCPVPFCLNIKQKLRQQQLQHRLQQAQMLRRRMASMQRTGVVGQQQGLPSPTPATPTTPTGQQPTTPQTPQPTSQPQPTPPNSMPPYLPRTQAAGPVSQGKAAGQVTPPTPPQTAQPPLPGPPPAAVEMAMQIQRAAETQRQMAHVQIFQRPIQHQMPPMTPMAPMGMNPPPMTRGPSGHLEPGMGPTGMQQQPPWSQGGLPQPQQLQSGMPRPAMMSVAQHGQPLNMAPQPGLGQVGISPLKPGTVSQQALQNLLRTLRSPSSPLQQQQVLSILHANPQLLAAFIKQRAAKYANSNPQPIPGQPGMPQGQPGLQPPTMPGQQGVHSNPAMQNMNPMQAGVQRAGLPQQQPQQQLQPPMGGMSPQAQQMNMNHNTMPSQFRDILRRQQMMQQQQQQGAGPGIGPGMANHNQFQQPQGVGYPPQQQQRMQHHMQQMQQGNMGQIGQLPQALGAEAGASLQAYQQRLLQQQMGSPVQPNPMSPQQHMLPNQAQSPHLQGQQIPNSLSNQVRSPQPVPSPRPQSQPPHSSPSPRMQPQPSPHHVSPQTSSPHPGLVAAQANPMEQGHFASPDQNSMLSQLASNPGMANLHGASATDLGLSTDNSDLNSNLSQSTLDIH
T1 sequence (Q92793 whole entry, looked up, the tested form may be a part): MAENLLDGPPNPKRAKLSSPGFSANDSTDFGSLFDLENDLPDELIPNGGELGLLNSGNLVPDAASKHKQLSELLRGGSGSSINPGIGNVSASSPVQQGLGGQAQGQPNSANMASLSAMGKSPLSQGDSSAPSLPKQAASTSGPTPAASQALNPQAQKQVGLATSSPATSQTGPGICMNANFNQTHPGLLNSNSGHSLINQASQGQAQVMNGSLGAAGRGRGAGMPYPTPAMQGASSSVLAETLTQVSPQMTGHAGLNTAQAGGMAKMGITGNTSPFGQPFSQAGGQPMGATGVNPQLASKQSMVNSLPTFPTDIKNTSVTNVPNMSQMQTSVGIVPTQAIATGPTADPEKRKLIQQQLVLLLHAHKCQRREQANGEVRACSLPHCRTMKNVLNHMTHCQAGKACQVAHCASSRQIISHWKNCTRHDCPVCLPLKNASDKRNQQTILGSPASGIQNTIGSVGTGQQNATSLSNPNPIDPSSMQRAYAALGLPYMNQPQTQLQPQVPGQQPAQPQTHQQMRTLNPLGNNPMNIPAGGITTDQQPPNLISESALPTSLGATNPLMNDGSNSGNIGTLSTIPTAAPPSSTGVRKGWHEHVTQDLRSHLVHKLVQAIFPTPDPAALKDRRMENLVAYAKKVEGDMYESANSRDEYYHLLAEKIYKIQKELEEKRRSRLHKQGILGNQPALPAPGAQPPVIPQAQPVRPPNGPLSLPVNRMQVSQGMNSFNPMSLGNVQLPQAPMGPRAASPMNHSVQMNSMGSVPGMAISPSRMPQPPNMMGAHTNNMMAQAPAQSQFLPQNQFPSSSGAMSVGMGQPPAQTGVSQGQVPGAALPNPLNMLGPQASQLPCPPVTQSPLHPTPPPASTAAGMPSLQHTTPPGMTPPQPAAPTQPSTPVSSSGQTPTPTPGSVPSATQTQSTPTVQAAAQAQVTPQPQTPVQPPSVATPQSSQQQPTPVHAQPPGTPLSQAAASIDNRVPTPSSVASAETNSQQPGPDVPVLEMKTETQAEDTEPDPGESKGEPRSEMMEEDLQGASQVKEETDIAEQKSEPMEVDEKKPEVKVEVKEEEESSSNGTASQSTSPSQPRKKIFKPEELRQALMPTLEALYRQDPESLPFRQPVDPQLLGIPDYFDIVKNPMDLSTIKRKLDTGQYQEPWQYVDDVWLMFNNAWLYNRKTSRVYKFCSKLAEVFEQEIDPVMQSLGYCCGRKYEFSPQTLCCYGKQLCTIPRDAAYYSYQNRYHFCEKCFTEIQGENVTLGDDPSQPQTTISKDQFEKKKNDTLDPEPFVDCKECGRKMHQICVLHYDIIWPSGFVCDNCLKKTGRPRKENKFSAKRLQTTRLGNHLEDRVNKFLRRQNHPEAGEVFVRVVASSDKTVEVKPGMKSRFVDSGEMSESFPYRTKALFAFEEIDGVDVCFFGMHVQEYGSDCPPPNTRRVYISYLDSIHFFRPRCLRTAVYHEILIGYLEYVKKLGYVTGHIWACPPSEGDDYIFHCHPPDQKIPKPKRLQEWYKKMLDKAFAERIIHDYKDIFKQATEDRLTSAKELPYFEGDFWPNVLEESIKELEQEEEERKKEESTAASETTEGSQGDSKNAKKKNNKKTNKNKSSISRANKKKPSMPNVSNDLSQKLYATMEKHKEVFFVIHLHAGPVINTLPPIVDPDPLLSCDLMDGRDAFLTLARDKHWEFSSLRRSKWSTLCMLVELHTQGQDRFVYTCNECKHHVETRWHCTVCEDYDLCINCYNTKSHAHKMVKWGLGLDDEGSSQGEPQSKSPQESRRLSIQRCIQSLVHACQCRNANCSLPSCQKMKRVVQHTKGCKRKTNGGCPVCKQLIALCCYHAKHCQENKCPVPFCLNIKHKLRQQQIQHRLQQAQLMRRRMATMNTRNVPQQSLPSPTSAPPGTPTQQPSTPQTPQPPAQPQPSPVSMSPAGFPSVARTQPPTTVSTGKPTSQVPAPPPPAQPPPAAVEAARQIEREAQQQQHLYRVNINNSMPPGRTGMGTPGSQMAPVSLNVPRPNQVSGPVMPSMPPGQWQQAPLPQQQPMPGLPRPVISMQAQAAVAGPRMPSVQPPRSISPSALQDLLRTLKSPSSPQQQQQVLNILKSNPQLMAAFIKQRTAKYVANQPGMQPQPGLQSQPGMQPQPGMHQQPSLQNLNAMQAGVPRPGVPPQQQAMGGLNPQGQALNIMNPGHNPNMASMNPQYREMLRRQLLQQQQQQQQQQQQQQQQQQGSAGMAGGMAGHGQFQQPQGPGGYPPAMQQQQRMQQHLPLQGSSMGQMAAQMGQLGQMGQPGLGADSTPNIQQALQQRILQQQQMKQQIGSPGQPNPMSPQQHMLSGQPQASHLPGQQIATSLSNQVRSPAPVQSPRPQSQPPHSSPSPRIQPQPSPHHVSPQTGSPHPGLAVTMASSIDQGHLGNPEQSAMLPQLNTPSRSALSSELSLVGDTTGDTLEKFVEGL

Compound: H-DEEVLMSLVIEMGLDRWKELPEL-OH
Drug uptake [1]: Active

Compound: CC[C@H](C)[C@H](NC(=O)[C@H](CCCNC(=N)N)NC(=O)[C@H](CC(=O)O)NC(=O)[C@H](CC(C)C)NC(=O)CNC(=O)[C@H](CCSC)NC(=O)[C@H](CCC(=O)O)NC(=O)[C@@H](NC(=O)[C@@H](NC(=O)[C@H](CC(C)C)NC(=O)[C@H](CO)NC(=O)[C@H](CCSC)NC(=O)[C@H](CC(C)C)NC(=O)[C@@H](NC(=O)[C@H]1CNC(=O)[C@@H](N)CC(=O)N[C@@H](CC(=O)O)C(=O)N[C@@H](CCC(=O)O)C(=O)N1)C(C)C)C(C)C)[C@@H](C)CC)C(=O)N[C@@H](CCCCN)C(=O)N[C@@H](CCC(=O)O)C(=O)N[C@@H](CC(C)C)C(=O)N1CCC[C@H]1C(=O)N[C@@H](CCC(=O)O)C(=O)N[C@@H](CC(C)C)C(N)=O
Kd [2]: 0.0337 µM

Compound: H-DEEILMSLVIEMGLDRWKELPEL-OH
Activity [3]: Active
Stability [4]: Stable
Activity (HeLa [5]): Active
Kd [2]: 0.0223 µM

Compound: H-DEEVLMSLVIEMGLDRIKELPELWLGQNEFDFMTDF-OH
Kd [2]: 0.0177 µM

Compound: H-DEEVLMSLVIEMGLDRIKELPEL-OH
Kd [2]: 0.0371 µM

Compound: CC[C@H](C)[C@H](NC(=O)[C@@H]1CNC(=O)[C@@H](N)CC(=O)N[C@@H](CC(=O)O)C(=O)N[C@@H](CCC(=O)O)C(=O)N1)C(=O)N[C@@H](CC(C)C)C(=O)N[C@@H](CCSC)C(=O)N[C@@H](CO)C(=O)N[C@@H](CC(C)C)C(=O)N[C@H](C(=O)N[C@H](C(=O)N[C@@H](CCC(=O)O)C(=O)N[C@@H](CCSC)C(=O)NCC(=O)N[C@@H](CC(C)C)C(=O)N[C@@H](CC(=O)O)C(=O)N[C@@H](CCCNC(=N)N)C(=O)N[C@@H](Cc1c[nH]c2ccccc12)C(=O)N[C@@H](CCCCN)C(=O)N[C@@H](CCC(=O)O)C(=O)N[C@@H](CC(C)C)C(=O)N1CCC[C@H]1C(=O)N[C@@H](CCC(=O)O)C(=O)N[C@@H](CC(C)C)C(N)=O)[C@@H](C)CC)C(C)C (HELM PEPTIDE1{D.E.[O=C([C@H](CN[*:3])N[*:1])[*:2]].I.L.M.S.L.V.I.E.M.G.L.D.R.W.K.E.L.P.E.L.[am]}|CHEM1{[N[C@@H](CC(=O)[*:1])C(=O)[*:2]]}$PEPTIDE1,CHEM1,1:R1-1:R1|PEPTIDE1,CHEM1,3:R3-1:R2$$$V2.0)
inhibition [6]: Active
Activity (HeLa [7]): Active
Activity (HeLa [8]): Active
Activity (HeLa [9]): Active
growth inhibition (GI) (HeLa [10]): Active
growth inhibition (GI) (HeLa [11]): Active
growth inhibition (GI) (MDA-MB-231): Active
Activity (A549): Active
inhibition [12]: Active
inhibition [13]: Active
Activity [3]: Active
Stability [4]: Stable
Kd [2]: 0.0214 µM
Activity (HeLa [14]): Active
Activity (HeLa [15]): Active
Activity (HeLa [16]): Active

More lines, main results first:

Drug uptake [1]: Active
Compound: H-DEEILMSLVIEMGLDRIKELPEL-OH

Drug uptake [1]: Active
Compound: H-DEEVLWSLVIEMGLDRIKELPEL-OH

Kd [2]: 1.544 µM
Compound: H-GLDRIKELPELWLG-OH

Kd [2]: 0.2282 µM
Compound: H-DEEVLMSLVIEM-OH

Kd [2]: 0.226 µM
Compound: H-LPELWLGQNEFDFMTDF-OH

Kd [2]: 0.0362 µM
Compound: H-DEEVLWSLVIEMGLDRWKELPEL-OH

Kd [2]: 0.032 µM
Compound: H-DEEILWSLVIEMGLDRIKELPEL-OH
Activity (HeLa [5]): Active

Kd [2]: 0.3125 µM
Compound: H-QNEFDFMTDF-OH

Kd [2]: 0.0295 µM
Compound: H-DEEILWSLVIEMGLDRWKELPEL-OH
